{
  "source": "patent US12187712B2",
  "about": "“Cardiac sarcomere inhibitors” (Cytokinetics, Inc., priority 2018, dated 2025)",
  "data": [
    {"molecular_target": "T1, bovine cardiac myofibrils (Bos taurus, UniProt Q9BE39)", "T1 construct": "full-length cardiac myosin in the context of the native sarcomere, skinned myofibril assays were performed; from tissue; host or cells: bovine cardiac left ventricular tissue, detergent-skinned (Triton X-100) myofibrils", "T1 sequence (Q9BE39 whole entry)": "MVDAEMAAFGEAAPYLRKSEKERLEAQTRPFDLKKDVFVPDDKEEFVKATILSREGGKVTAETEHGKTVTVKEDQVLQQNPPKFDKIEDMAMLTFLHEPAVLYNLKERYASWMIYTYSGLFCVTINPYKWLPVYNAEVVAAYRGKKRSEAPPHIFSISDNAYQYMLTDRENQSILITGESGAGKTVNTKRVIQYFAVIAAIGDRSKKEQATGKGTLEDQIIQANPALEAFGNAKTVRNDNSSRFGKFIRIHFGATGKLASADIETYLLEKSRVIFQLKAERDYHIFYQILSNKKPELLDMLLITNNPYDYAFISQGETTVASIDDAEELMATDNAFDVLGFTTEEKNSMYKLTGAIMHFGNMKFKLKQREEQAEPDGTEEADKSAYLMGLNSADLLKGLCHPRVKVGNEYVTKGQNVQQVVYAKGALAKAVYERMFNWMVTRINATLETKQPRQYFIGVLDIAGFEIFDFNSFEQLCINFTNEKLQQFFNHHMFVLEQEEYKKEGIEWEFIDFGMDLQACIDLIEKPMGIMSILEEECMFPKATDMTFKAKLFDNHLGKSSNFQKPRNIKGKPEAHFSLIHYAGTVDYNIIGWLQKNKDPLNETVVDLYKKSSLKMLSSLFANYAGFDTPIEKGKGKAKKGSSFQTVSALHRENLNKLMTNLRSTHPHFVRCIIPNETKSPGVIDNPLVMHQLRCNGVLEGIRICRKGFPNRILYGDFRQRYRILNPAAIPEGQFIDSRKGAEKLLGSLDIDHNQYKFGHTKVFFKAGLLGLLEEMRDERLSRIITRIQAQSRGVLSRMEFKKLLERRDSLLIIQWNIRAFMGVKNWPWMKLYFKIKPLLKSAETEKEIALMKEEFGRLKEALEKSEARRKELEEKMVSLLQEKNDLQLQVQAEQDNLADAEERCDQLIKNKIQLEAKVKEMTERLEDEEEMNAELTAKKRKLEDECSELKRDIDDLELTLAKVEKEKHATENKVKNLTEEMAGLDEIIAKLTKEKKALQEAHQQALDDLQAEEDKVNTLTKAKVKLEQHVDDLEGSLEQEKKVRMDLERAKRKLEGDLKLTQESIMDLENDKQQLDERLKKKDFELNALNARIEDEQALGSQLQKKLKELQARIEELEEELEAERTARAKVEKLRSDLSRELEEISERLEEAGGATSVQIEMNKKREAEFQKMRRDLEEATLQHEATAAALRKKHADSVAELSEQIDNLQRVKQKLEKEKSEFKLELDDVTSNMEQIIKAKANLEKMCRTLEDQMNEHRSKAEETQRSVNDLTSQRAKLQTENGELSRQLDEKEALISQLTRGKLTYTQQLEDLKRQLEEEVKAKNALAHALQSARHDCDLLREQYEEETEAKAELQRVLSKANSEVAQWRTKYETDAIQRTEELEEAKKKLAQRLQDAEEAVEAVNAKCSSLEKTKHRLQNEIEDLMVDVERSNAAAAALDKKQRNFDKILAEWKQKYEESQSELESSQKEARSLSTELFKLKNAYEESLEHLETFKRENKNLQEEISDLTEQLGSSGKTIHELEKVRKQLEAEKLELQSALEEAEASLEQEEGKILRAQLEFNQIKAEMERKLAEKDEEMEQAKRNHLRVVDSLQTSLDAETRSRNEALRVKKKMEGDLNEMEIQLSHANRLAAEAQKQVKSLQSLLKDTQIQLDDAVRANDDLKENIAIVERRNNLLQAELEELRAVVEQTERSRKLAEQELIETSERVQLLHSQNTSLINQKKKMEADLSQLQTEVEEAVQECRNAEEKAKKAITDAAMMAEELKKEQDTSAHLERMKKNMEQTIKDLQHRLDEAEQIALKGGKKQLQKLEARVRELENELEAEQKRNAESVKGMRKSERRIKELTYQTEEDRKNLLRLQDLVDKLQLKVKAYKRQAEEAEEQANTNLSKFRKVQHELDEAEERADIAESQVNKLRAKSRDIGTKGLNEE", "T1 sequence (P85100 whole entry partner)": "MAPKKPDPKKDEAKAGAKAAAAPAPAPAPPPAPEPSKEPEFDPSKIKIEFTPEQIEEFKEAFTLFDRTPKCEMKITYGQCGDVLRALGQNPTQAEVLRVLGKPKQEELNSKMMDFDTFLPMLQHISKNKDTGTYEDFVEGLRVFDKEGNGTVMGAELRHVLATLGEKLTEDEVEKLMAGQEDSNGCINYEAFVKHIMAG", "T1 sequence (Q3SZE5 whole entry partner)": "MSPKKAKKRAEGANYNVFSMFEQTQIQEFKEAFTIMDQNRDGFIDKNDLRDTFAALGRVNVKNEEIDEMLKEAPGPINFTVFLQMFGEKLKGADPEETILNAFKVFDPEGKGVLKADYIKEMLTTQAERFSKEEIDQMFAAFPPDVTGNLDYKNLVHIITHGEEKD", "assay": "Skinned myofibril ATPase assay (PK/LDH-coupled), CDMF75", "assay_type": "biochemical", "details": "inhibition of steady-state ATPase activity of bovine cardiac myofibrils at 75% Ca2+ activation (pCa75)", "experimental": "To evaluate the effect of compounds on the ATPase activity of full-length cardiac myosin in the context of the native sarcomere, skinned myofibril assays were performed. Bovine cardiac myofibrils were obtained by homogenizing bovine cardiac left ventricular tissue in the presence of a detergent such as triton X-100. Such treatment removes membranes and a majority of the soluble cytoplasmic proteins but leaves intact the cardiac sarcomeric acto-myosin apparatus. Myofibril preparations retain the ability to hydrolyze ATP in an Ca^2+ regulated manner. ATPase activities of such myofibril preparations in the presence and absence of compounds were assayed at Ca^2+ concentrations activating to a defined fraction of the maximal rate (i.e., 25%, 75%). Small molecule agents were assessed for their ability to inhibit the steady-state ATPase activity of bovine cardiac myofibrils using pyruvate kinase and lactate dehydrogenase (PK/LDH)-coupled enzyme system. This assay regenerates myosin-produced ADP into ATP by oxidizing NADH, producing an absorbance change at 340 nm. Prior to testing small molecule agents, the bovine cardiac myofibrils were assessed for their calcium responsiveness and the calcium concentration that achieves either a 50% (pCa50) or 75% (pCa75) activation of the myofibril system was chosen as the final condition for assessing the inhibitory activity of the small molecule agents. All enzymatic activity was measured in a buffered solution containing 12 mM PIPES (piperazine-N,N′-bis(2-ethanesulfonic acid), 2 mM magnesium chloride at pH 6.8 (PM 12 buffer). Final assay conditions were 1 mg/mL of bovine cardiac myofibrils, 4 U/mL pyruvate kinase, 6 U/mL lactate dehydrogenase, 50 μM ATP, 0.1 mg/mL BSA (bovine serum albumin), 10 ppm antifoam, 1 mM DTT, 0.5 mM NADH, 1.5 mM PEP, 0.6 mM EGTA, and an amount of CaCl2 sufficient to achieve either 50% or 75% activation of the myofibril ATPase activity. Results for compounds tested are provided in Table A. Compounds tested were prepared in accordance with the synthetic procedures described herein.", "units": {"CDMF75 IC15": "µM", "IC50": "µM"}, "values": [
      {"compound": "FC(F)(F)c1nc(-c2ccc(CNc3cnccn3)cc2)no1", "note": "[Compound 70, N-(4-(5-(trifluoromethyl)-1,2,4-oxadiazol-3-yl)benzyl)pyrazin-2-amine]", "CDMF75 IC15": 0.8, "IC50": 4.1},
      {"compound": "Cc1cnn(-c2ccc(CNc3cnccn3)cc2)c1", "note": "[Compound 29, N-(4-(4-methyl-1H-pyrazol-1-yl)benzyl)pyrazin-2-amine]", "CDMF75 IC15": 8.1, "IC50": 38.9},
      {"compound": "C[C@@H](Nc1cnccn1)c1ccc(-c2noc(C(F)F)n2)cc1", "note": "[Compound 33, (R)-N-(1-(4-(5-(difluoromethyl)-1,2,4-oxadiazol-3-yl)phenyl)ethyl)pyrazin-2-amine]", "CDMF75 IC15": 0.3, "IC50": 1.5},
      {"compound": "Cc1nc(-c2ccc(CNc3ccnc(Cl)n3)cc2)no1", "note": "[Compound 12, 2-chloro-N-(4-(5-methyl-1,2,4-oxadiazol-3-yl)benzyl)pyrimidin-4-amine]", "CDMF75 IC15": 2.5, "IC50": 9.8},
      {"compound": "Cc1nc(-c2ccc(CNC(=O)OCc3ccccc3)cc2)no1", "note": "[Compound 57, benzyl (4-(5-methyl-1,2,4-oxadiazol-3-yl)benzyl)carbamate]", "CDMF75 IC15": 3.1, "IC50": 19.3},
      {"compound": "COC(=O)c1nc(-c2ccc(CNc3cnccn3)cc2)no1", "note": "[Compound 30, methyl 3-(4-((pyrazin-2-ylamino)methyl)phenyl)-1,2,4-oxadiazole-5-carboxylate]", "CDMF75 IC15": 0.5, "IC50": 2.6},
      {"compound": "Cc1nc(-c2ccc3c(c2)CCCC3Nc2cnccn2)no1", "note": "(stereo not drawn) [Compound 59, N-(6-(5-methyl-1,2,4-oxadiazol-3-yl)-1,2,3,4-tetrahydronaphthalen-1-yl)pyrazin-2-amine]", "CDMF75 IC15": 0.7, "IC50": 2.2},
      {"compound": "Cc1nc(-c2ccc(CNC(=O)c3ccccc3)cc2)no1", "note": "[Compound 50, N-(4-(5-methyl-1,2,4-oxadiazol-3-yl)benzyl)benzamide]", "CDMF75 IC15": 3.4, "IC50": 15.1},
      {"compound": "Cc1nc(-c2ccc(CNC(=O)c3ccncc3O)cc2)no1", "note": "[Compound 63, 3-hydroxy-N-(4-(5-methyl-1,2,4-oxadiazol-3-yl)benzyl)isonicotinamide]", "IC50": "> 39.2"},
      {"compound": "Cc1nc(-c2ccc(CNc3cnc(C(F)(F)F)cn3)cc2)no1", "note": "[Compound 16, N-(4-(5-methyl-1,2,4-oxadiazol-3-yl)benzyl)-5-(trifluoromethyl)pyrazin-2-amine]", "CDMF75 IC15": 3.1, "IC50": 17.3},
      {"compound": "Cc1nc(-c2ccc(CNc3cc(C#N)ncn3)cc2)no1", "note": "[Compound 7, 6-((4-(5-methyl-1,2,4-oxadiazol-3-yl)benzyl)amino)pyrimidine-4-carbonitrile]", "IC50": 1.8},
      {"compound": "Cc1nc(-c2ccc(CNc3cnccn3)c(F)c2)no1", "note": "[Compound 46, N-(2-fluoro-4-(5-methyl-1,2,4-oxadiazol-3-yl)benzyl)pyrazin-2-amine]", "CDMF75 IC15": 0.4, "IC50": 2.2},
      {"compound": "C[C@@H](Nc1cnccn1)c1ccc(-c2noc(C(C)(C)C)n2)cc1", "note": "[Compound 36, (R)-N-(1-(4-(5-(tert-butyl)-1,2,4-oxadiazol-3-yl)phenyl)ethyl)pyrazin-2-amine]", "CDMF75 IC15": 7.1, "IC50": 36.5},
      {"compound": "C[C@@H](Nc1cnccn1)c1ccc(-c2noc(-c3ccco3)n2)cc1", "note": "[Compound 39, (R)-N-(1-(4-(5-(furan-2-yl)-1,2,4-oxadiazol-3-yl)phenyl)ethyl)pyrazin-2-amine]", "CDMF75 IC15": 0.2, "IC50": 0.9},
      {"compound": "Cc1cnc(-c2ccc(CNc3cnccn3)cc2)s1", "note": "[Compound 48, N-[[4-(5-methyl-1,3-thiazol-2-yl)phenyl]methyl]pyrazin-2-amine]", "CDMF75 IC15": 4.0, "IC50": 19},
      {"compound": "Cc1nc(-c2ccc3c(c2)CCC3Nc2cnccn2)no1", "note": "(stereo not drawn) [Compound 55, N-[5-(5-methyl-1,2,4-oxadiazol-3-yl)-2,3-dihydro-1H-inden-1-yl]pyrazin-2-amine]", "CDMF75 IC15": 0.4, "IC50": 1.3},
      {"compound": "Cc1nc(-c2ccc(C(C)Nc3cnccn3)cc2)no1", "note": "(stereo not drawn) [Compound 26, N-(1-(4-(5-methyl-1,2,4-oxadiazol-3-yl)phenyl)ethyl)pyrazin-2-amine]", "CDMF75 IC15": 1.1, "IC50": 5.6},
      {"compound": "COc1cnc(NCc2ccc(-c3cc(C)on3)cc2)cn1", "note": "[Compound 67, 5-methoxy-N-(4-(5-methylisoxazol-3-yl)benzyl)pyrazin-2-amine]", "CDMF75 IC15": 0.4, "IC50": 2.2},
      {"compound": "Cc1nc(-c2ccc(CNc3cnccn3)cc2F)no1", "note": "[Compound 41, N-(3-fluoro-4-(5-methyl-1,2,4-oxadiazol-3-yl)benzyl)pyrazin-2-amine]", "CDMF75 IC15": 0.7, "IC50": 3.9},
      {"compound": "Cc1nc(-c2ccc(CNC(=O)c3ccnc(N)c3)cc2)no1", "note": "[Compound 60, 2-amino-N-[[4-(5-methyl-1,2,4-oxadiazol-3-yl)phenyl]methyl]pyridine-4-carboxamide]", "CDMF75 IC15": 7.7, "IC50": 30.8},
      {"compound": "Cc1cc(-c2ccc(CNc3cc(=O)[nH]cn3)cc2)no1", "note": "[Compound 65, 6-((4-(5-methylisoxazol-3-yl)benzyl)amino)pyrimidin-4(3H)-one]", "CDMF75 IC15": 7.6, "IC50": "> 39.2"},
      {"compound": "COc1cc(NCc2ccc(-c3cc(C)on3)cc2)ncn1", "note": "[Compound 66, 6-methoxy-N-(4-(5-methylisoxazol-3-yl)benzyl)pyrimidin-4-amine]", "CDMF75 IC15": 0.3, "IC50": 1.7},
      {"compound": "Cc1nc(-c2ccc(CNc3cnc(C#N)cn3)cc2)no1", "note": "[Compound 10, 5-((4-(5-methyl-1,2,4-oxadiazol-3-yl)benzyl)amino)pyrazine-2-carbonitrile]", "CDMF75 IC15": 1.3, "IC50": 7.6},
      {"compound": "Fc1cc(-c2noc(C(F)(F)F)n2)ccc1CNc1cnccn1", "note": "[Compound 45, N-(2-fluoro-4-(5-(trifluoromethyl)-1,2,4-oxadiazol-3-yl)benzyl)pyrazin-2-amine]", "CDMF75 IC15": 0.9, "IC50": 4},
      {"compound": "FC(F)c1nc(-c2ccc(CNc3cnccn3)cc2)no1", "note": "[Compound 24, N-(4-(5-(difluoromethyl)-1,2,4-oxadiazol-3-yl)benzyl)pyrazin-2-amine]", "CDMF75 IC15": 0.8, "IC50": 3.1},
      {"compound": "Cc1nc(-c2ccc(CNc3ccnc(Cl)c3)cc2)no1", "note": "[Compound 44, 2-chloro-N-(4-(5-methyl-1,2,4-oxadiazol-3-yl)benzyl)pyridin-4-amine]", "CDMF75 IC15": 2.2, "IC50": 10.9},
      {"compound": "Cc1cc(-c2nc(-c3ccc([C@@H](C)Nc4cnccn4)cc3)no2)on1", "note": "[Compound 38, (R)-N-(1-(4-(5-(3-methylisoxazol-5-yl)-1,2,4-oxadiazol-3-yl)phenyl)ethyl)pyrazin-2-amine]", "CDMF75 IC15": 3.0, "IC50": 19.1},
      {"compound": "Cc1coc(-c2ccc(CNc3cnccn3)cc2)n1", "note": "[Compound 69, N-[[4-(4-methyl-1,3-oxazol-2-yl)phenyl]methyl]pyrazin-2-amine]", "CDMF75 IC15": 18.4, "IC50": "> 39.2"},
      {"compound": "CCc1cc(NCc2ccc(-c3noc(C)n3)cc2)ncn1", "note": "[Compound 8, 6-ethyl-N-(4-(5-methyl-1,2,4-oxadiazol-3-yl)benzyl)pyrimidin-4-amine]", "CDMF75 IC15": 3.1, "IC50": 16.6},
      {"compound": "CCc1nc(-c2ccc(CNc3cc(C#N)ncn3)cc2)no1", "note": "[Compound 11, 6-((4-(5-ethyl-1,2,4-oxadiazol-3-yl)benzyl)amino)pyrimidine-4-carbonitrile]", "CDMF75 IC15": 0.2, "IC50": 0.7},
      {"compound": "Cc1cnc(-c2ccc(CNc3cc(Cl)ncn3)cc2)o1", "note": "[Compound 27, 6-chloro-N-(4-(5-methyloxazol-2-yl)benzyl)pyrimidin-4-amine]", "CDMF75 IC15": 1.2, "IC50": 8.9},
      {"compound": "Cc1nc(-c2ccc(CNc3ccc(C#N)cn3)cc2)no1", "note": "[Compound 14, 6-((4-(5-methyl-1,2,4-oxadiazol-3-yl)benzyl)amino) nicotinonitrile]", "CDMF75 IC15": 4.6, "IC50": 20.9},
      {"compound": "Cc1onc(-c2ccc(CNc3cnccn3)cc2)c1I", "note": "[Compound 51, N-(4-(4-iodo-5-methylisoxazol-3-yl)benzyl)pyrazin-2-amine]", "CDMF75 IC15": 0.2, "IC50": 0.9},
      {"compound": "Fc1cc(-c2noc(C3CC3)n2)ccc1CNc1cnccn1", "note": "[Compound 47, N-(4-(5-cyclopropyl-1,2,4-oxadiazol-3-yl)-2-fluorobenzyl)pyrazin-2-amine]", "CDMF75 IC15": 0.3, "IC50": 1.7},
      {"compound": "Cc1cc(-c2ccc(CNc3cnccn3)cc2)on1", "note": "[Compound 53, N-(4-(3-methylisoxazol-5-yl)benzyl)pyrazin-2-amine]", "CDMF75 IC15": 2.1, "IC50": 9.4},
      {"compound": "FCc1nc(-c2ccc(CNc3cnccn3)cc2)no1", "note": "[Compound 25, N-(4-(5-(fluoromethyl)-1,2,4-oxadiazol-3-yl)benzyl)pyrazin-2-amine]", "CDMF75 IC15": 1.1, "IC50": 4.5},
      {"compound": "Cc1nc(-c2ccc(CNC(=O)Oc3ccccc3)cc2)no1", "note": "[Compound 58, phenyl (4-(5-methyl-1,2,4-oxadiazol-3-yl)benzyl)carbamate]", "CDMF75 IC15": 2.3, "IC50": 11.4}
    ]}
  ]
}
